Where two headings read alike, the source gives them in different places.
Tests used:
[1] = biological target: T1, human recombinant adrenergic α1D receptor (Homo sapiens, UniProt P25100); test: Adrenergic α1D radioligand binding ([3H]Prozosin)
T1 construct: expressed in transfected cells; host or cells: HEK-293 cells
T1 sequence (P25100 1-572): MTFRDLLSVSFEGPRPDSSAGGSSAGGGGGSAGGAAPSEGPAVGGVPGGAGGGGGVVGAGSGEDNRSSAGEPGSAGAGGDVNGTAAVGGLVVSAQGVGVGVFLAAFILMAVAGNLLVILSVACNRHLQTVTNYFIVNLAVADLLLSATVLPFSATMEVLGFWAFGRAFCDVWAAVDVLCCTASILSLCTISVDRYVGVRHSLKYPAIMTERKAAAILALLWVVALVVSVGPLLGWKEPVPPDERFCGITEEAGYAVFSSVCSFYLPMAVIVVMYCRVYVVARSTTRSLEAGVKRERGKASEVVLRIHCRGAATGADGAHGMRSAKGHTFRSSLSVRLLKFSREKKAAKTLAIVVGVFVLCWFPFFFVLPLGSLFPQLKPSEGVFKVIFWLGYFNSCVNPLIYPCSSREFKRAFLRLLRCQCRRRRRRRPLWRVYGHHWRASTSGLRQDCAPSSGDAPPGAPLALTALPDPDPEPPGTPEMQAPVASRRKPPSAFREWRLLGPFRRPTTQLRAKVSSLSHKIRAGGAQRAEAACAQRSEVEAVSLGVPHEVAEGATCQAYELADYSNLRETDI
Procedure: To evaluate in radioligand binding assays the activity of compounds of the invention, human recombinant adrenergic a1D receptor expressed in human embryonic kidney (HEK-293) cells (Kenny, B. A. et al. Br. J. Pharmacol. 115(6):981, 1995) in a 50 mM Tris-HCl buffer, pH 7.4, was used. Compounds of invention were incubated with 0.6 nM [^3H]Prozosin for 60 minutes at 25° C. Non-specific binding was estimated in the presence of 10 μM phentolamine. Receptor proteins were filtered and washed, the filters were then counted to determine [^3H]Prozosin specifically bound. Compounds were screened at 1 μM or lower, using 1% DMSO as vehicle. Biochemical assay results are presented as the percent inhibition of specific binding in Table 4. Adrenergic a2A

[2] = biological target: T2, human recombinant dopamine D2L receptor (Homo sapiens, UniProt P14416); test: Dopamine D2L radioligand binding ([3H]Spiperone)
T2 construct: expressed in transfected cells; host or cells: CHO cells
Procedure, shortened: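 CHO-expressed receptor in 50 mM Tris-HCl pH 7.4 with ascorbic acid, 0.001% BSA, 150 mM NaCl; 0.16 nM [3H]spiperone, 120 min at 25 °C; nonspecific binding with haloperidol.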

[3] = biological target: T3, human recombinant serotonin (5-Hydroxytryptamine) 5-HT2C receptor (Homo sapiens, UniProt P28335); test: Serotonin 5-HT2C radioligand binding ([3H]Mesulergine)
T3 construct: expressed in transfected cells; host or cells: CHO-K1 cells
T3 sequence (P28335 33-458): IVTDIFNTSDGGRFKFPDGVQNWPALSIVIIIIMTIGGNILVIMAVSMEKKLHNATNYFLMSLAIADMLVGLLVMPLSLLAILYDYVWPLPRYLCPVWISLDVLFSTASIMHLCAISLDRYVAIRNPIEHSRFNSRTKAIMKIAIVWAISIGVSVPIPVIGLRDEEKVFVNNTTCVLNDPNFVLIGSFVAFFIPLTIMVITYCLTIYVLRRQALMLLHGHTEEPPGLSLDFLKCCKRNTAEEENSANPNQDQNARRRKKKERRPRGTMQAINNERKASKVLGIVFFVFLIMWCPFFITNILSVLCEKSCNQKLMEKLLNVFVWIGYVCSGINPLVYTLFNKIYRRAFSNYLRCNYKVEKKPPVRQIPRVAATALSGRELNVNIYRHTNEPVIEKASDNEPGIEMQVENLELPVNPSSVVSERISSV
Procedure: Compounds of the invention were incubated with 1 nM [^3H]Mesulergine for 60 minutes at 25° C. Non-specific binding was estimated in the presence of 1 μM Mianserin. Receptor proteins were filtered and washed, the filters were then counted to determine [^3H]Mesulergine specifically bound. […] Biochemical assay results are presented as the percent inhibition of specific binding in Table 5.

[4] = 1 h, read-out: Percent Inhibition of ligand binding Adrenergic (1 μM ligand conc.) α1D
[5] = 2 h, 1 μM ligand conc., read-out: Percent Inhibition of ligand binding Dopamine (1 μM ligand conc.) D2L
[6] = 1 h, read-out: Percent Inhibition of ligand binding Serotonin (1 μM ligand concentration) 5-HT2C

T2 sequence (P14416 whole entry): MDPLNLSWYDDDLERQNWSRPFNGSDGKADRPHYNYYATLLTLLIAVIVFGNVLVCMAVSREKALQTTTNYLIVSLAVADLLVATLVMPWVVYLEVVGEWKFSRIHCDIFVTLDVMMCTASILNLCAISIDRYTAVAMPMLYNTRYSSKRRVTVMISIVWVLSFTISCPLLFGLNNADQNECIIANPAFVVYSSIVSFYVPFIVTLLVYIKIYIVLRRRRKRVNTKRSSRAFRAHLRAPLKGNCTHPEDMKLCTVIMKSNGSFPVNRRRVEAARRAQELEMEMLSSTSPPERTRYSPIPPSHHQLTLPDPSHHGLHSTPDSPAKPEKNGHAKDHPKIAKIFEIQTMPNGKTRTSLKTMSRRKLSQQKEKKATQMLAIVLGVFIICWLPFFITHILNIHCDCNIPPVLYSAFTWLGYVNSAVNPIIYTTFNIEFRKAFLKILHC

Row | SMILES | inhibition at 1 µM [1, 4] | inhibition at 1 µM [2, 5] | inhibition at 1 µM [3, 6] | further results
1 | CCC1c2c(c3cc(Cl)ccc3n2CC(C)(O)c2ccc(F)cc2)CCN1C (stereo not shown) [Compound 79] | 17% | 2% | 77% | 
2 | CC1c2c(c3cc(Cl)ccc3n2C#Cc2ccc(Cl)cc2)CCN1C (stereo not shown) [Compound 132, 6-chloro-9-((4-chlorophenyl)ethynyl)-1,2-dimethyl-2,3,4,9-tetrahydro-1H-pyrido[3,4-b]indole] | -8% | -6% | 94% | 
3 | CC1c2c(c3cc(Cl)ccc3n2C#Cc2ccc(F)cc2)CCN1C (stereo not shown) [Compound 128] | 25% | 14% | 101% | 
4 | CN1CCc2c(n(CC(=O)O)c3ccc(Cl)cc23)C1 [Compound 52, 2-(6-chloro-1,2,3,4-tetrahydro-2-methylpyrido[3,4-b]indol-9-yl)acetic acid] | -11% | 1% | -4% | 
5 | CN1CCc2c(n(CC(=O)N(C)C)c3ccc(Cl)cc23)C1 [Compound 16, 2-(6-chloro-1,2,3,4-tetrahydro-2-methylpyrido[3,4-b]indol-9-yl)-N,N-dimethylacetamide] | 2% | -7% | -18% | 
6 | Cc1ccc(C(O)Cn2c3c(c4cc(C)ccc42)CCN(C)C3)cc1 (stereo not shown) [Compound 72] | 86% | 24% | 89% | 
7 | CN1CCc2c(n(CC(=O)N3CCCC3)c3ccc(Cl)cc23)C1 [Compound 40, 2-(6-chloro-1,2,3,4-tetrahydro-2-methylpyrido[3,4-b]indol-9-yl)-1-(pyrrolidin-1-yl)ethanone] | 3% | -11% | 12% | 
8 | CCC1c2c(c3cc(C)ccc3n2C(=O)Cc2ccc(F)cc2)CCN1C (stereo not shown) [Compound 159] | 25% | -9% | 103% | 
9 | COc1ccc(C(O)Cn2c3c(c4cc(C)ccc42)CCN(C)C3)cc1OC (stereo not shown) [Compound 66] | 74% | 9% | 48% | 
10 | Cc1ccc2c(c1)c1c(n2C(=O)Cc2ccc(Cl)cc2)C(c2ccccc2)N(C)CC1 (stereo not shown) [Compound 163] | 78% | -12% | 96% | 
11 | C/C(=C\n1c2c(c3cc(C)ccc31)CCN(C)C2c1ccccc1)c1ccc(Cl)cc1 (stereo not shown) [Compound 164, 9-(2-(4-chlorophenyl)prop-1-enyl)-2,6-dimethyl-1-phenyl-2,3,4,9-tetrahydro-1H-pyrido[3,4-b]indole] | 10% | -2% | 98% | 
12 | C/C(=C\n1c2c(c3cc(Cl)ccc31)CCN(C)C2)c1ccc(Cl)cc1 [Compound 98, 6-chloro-9-(2-(4-chlorophenyl)prop-1-enyl)-2-methyl-2,3,4,9-tetrahydro-1H-pyrido[3,4-b]indole] | 57% | 32% | 103% | 
13 | C/C(=C/n1c2c(c3cc(C)ccc31)CCN(C)C2C)c1ccccc1F (stereo not shown) [Compound 165] | 26% | 6% | 93% | 
14 | CN1CCc2c(n(CC(=O)N(C)C3CCCCC3)c3ccc(Cl)cc23)C1 [Compound 18, 2-(6-chloro-1,2,3,4-tetrahydro-2-methylpyrido[3,4-b]indol-9-yl)-N-cyclohexyl-N-methylacetamide] | 21% | 0% | 3% | 
15 | Cc1ccc2c(c1)c1c(n2CC(O)c2ccccc2)CN(C)CC1 (stereo not shown) [Compound 67] | 85% | 21% | 85% | 
16 | C/C(=C\n1c2c(c3cc(Cl)ccc31)CCN(C)C2)c1ccc(F)cc1 [Compound 90, (E)-6-chloro-9-(2-(4-fluorophenyl)prop-1-enyl)-2-methyl-2,3,4,9-tetrahydro-1H-pyrido[3,4-b]indole] | 62% | 36% | 99% | inhibition at 1 µM ([1]; compound concentration 1 μM, read-out: Percentage inhibition of ligand binding to Adrenergic α1D receptor): 62%; inhibition at 1 µM ([2]; compound concentration 1 μM, read-out: Percentage inhibition of ligand binding to D2L receptor): 39%; inhibition at 3 µM ([2]; compound concentration 3 μM, read-out: Percentage inhibition of ligand binding to D2L receptor): 70%; inhibition at 10 µM ([2]; compound concentration 10 μM, read-out: Percentage inhibition of ligand binding to D2L receptor): 91%; inhibition at 0.003 µM ([3]; compound concentration 3 nM, read-out: Percentage inhibition of ligand binding to 5-HT2C receptor): 22%; inhibition at 0.01 µM ([3]; compound concentration 10 nM, read-out: Percentage inhibition of ligand binding to 5-HT2C receptor): 37%; inhibition at 0.03 µM ([3]; compound concentration 0.03 μM, read-out: Percentage inhibition of ligand binding to 5-HT2C receptor): 65%; inhibition at 0.1 µM ([3]; compound concentration 0.1 μM, read-out: Percentage inhibition of ligand binding to 5-HT2C receptor): 82%; inhibition at 0.3 µM ([3]; compound concentration 0.3 μM, read-out: Percentage inhibition of ligand binding to 5-HT2C receptor): 93%; inhibition at 1 µM ([3]; compound concentration 1 μM, read-out: Percentage inhibition of ligand binding to 5-HT2C receptor): 99%
17 | CCC1c2c(c3cc(Cl)ccc3n2C#Cc2ccc(F)cc2)CCN1C (stereo not shown) [Compound 129] | 10% | -8% | 107% | 
18 | Cc1ccc2c(c1)c1c(n2CCC2CCCCC2)CN(C)CC1 [Compound 2, 9-(2-cyclohexylethyl)-2,3,4,9-tetrahydro-2,6-dimethyl-1H-pyrido[3,4-b]indole] | 42% | -7% | 84% | 
19 | CN1CCc2c(n(CC(=O)NC3CCCCC3)c3ccc(Cl)cc23)C1 [Compound 17, 2-(6-chloro-1,2,3,4-tetrahydro-2-methylpyvrido[3,4-b]indol-9-yl)-N-cyclohexylacetamide] | 18% | -3% | 3% | 
20 | CN1CCc2c(n(CCc3ccc(F)cc3)c3ccc(Cl)cc23)C1 [Compound 3, 9-(4-fluorophenethyl)-6-chloro-2,3,4,9-tetrahydro-2-methyl-1H-pyrido[3,4-b]indole] | 77% | 47% | 90% | 
21 | CN1CCc2c(n(CC(=O)N3CCCCC3)c3ccc(Cl)cc23)C1 [Compound 58, 2-(6-chloro-2-methyl-3,4-dihydro-1H-pyrido[3,4-b]indol-9(2H)-yl)-1-(piperidin-1-yl)ethanone] | 19% | -5% | 30% | 
22 | CN1CCc2c(n(CCN3CCCCC3)c3ccc(Cl)cc23)C1 [Compound 34, 6-chloro-2,3,4,9-tetrahydro-2-methyl-9-(2-(piperidin-1-yl)ethyl)-1H-pyrido[3,4-b]indole] | 56% | 9% | 37% | 
23 | COc1ccc(C(O)Cn2c3c(c4cc(Cl)ccc42)CCN(C)C3)cc1OC (stereo not shown) [Compound 70] | 44% | 0% | 63% | 
24 | CCC1c2c(c3cc(Cl)ccc3n2CCc2ccc(F)cc2)CCN1C (stereo not shown) [Compound 78] | 42% | 11% | 101% | 
25 | C/C(=C\n1c2c(c3cc(Cl)ccc31)CCN(C)C2C)c1ccc(Cl)cc1 (stereo not shown) [Compound 99, 6-chloro-9-(2-(4-chlorophenyl)prop-1-enyl)-1,2-dimethyl-2,3,4,9-tetrahydro-1H-pyrido[3,4-b]indole] | 20% | -7% | 97% | 
